Patent US20230174521A1, “NOVEL DIACYLGLYCERIDE O-ACYLTRANSFERASE 2 INHIBITORS” (Merck Sharp & Dohme LLC, priority 2020, published 2023)

The compounds below were run against T1, human DGAT2 (hDGAT2) (Homo sapiens, UniProt Q96PD7) (assay: DGAT2 enzymatic activity assay (LC/MS/MS detection of 13C18-triolein, Sf-9 membrane prep)). Conditions: hDGAT2 Sf-9 membrane, 25 μM diolein, 5 μM 13C oleoyl-CoA, rt.
T1 construct: made in house; host or cells: Sf-9 insect cells (baculovirus infection); membrane fraction
T1 sequence (Q96PD7 1-388): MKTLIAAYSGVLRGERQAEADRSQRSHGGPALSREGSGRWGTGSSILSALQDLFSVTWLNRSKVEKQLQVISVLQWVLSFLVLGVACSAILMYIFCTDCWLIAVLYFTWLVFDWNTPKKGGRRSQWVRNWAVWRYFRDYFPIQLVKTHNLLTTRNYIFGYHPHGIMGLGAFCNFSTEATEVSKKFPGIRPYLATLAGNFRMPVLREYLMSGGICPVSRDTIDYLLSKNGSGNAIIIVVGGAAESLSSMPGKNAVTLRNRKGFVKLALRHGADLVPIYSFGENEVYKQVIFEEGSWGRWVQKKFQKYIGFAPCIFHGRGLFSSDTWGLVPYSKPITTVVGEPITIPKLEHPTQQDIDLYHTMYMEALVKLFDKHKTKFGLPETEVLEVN
Type: biochemical
Procedure: Sf-9 insect cells were maintained in Grace's insect cell culture medium with 10% heated-inactivated fetal bovine serum, 1% Pluronic F-68 and 0.14 μg/ml Kanamycine sulfate at 27° C. in a shaker incubator. After infection with untagged baculovirus expressing human DGAT2 (hDGAT2) at multiplicity of infection (MOI) 3 for 48 hours, cells were harvested. Cell pellets were suspended in buffer containing 10 mM Tris-HCl pH 7.5, 1 mM EDTA, 250 mM sucrose and Complete Protease Inhibitor Cocktail (Sigma Aldrich), and sonicated on ice. Cell debris were removed by centrifugation at 2000×g for 15 minutes. Membrane fractions were isolated by ultracentrifugation (100,000×g), resuspended in the same buffer, and frozen (−80° C.) for later use. The protein concentration was determined with the Pierce™ BCA Protein Assay Kit (Thermo Fisher Scientific). Expression of protein levels was analyzed by immunoblotting with rabbit anti-DGAT2 antibody (Abcam, ab102831) and donkey anti-rabbit IgG H&L Alexa Fluor® 647 (Abcam, ab150075) followed by detection using Typhoon FLA9000 (GE Healthcare).
LC/MS/MS analyses were performed using Thermal Fisher's LX4-TSQ Vantage system. This system consists of an Agilent binary high-performance liquid chromatography (HPLC) pumps and a TSQ Vantage triple quadrupole MS/MS instrument. For each sample, 2 μL samples from the top organic layer of in-plate liquid-liquid extraction were injected onto a Thermo Betabasic C4 column (2.1 mm×20 mm, 5 μm particle size). The samples were then eluted using the following conditions; mobile phase: Isopropanol: acetonitrile/10 mM ammonium formate=50/35/15 (v/v/v), flow rate: 0.8 mL/min, temperature: 25° C. Data was acquired in positive mode using a heated electrospray ionization (HESI) interface. The operational parameters for the TSQ Vantage MS/MS instrument were a spray voltage of 3000 V, capillary temperature of 280° C., vaporizer temperature 400° C., sheath gas 45 arbitrary unit, Aux gas 10 arbitrary units, S-lens 165 and collision gas 1.0 mTorr. […] (SRM) chromatograms of ^13C18-triolein (Q1: 920.8>Q3:621.3) and internal standard ^13C21-triolein (Q1: 923.8>Q3:617.3) were collected for 33 sec. The peak area was integrated by Xcalibur Quan software. The ratio between the ^13C18triolein generated in the reaction and spiked in internal standard ^13C21-triolein was used to generate percentage inhibition and IC50 values. Compound percentage inhibition was calculated by the following formula: Inhibition %=1−[(compound response−low control)/(high control−low control)]×100%. Potent compounds were titrated and IC50 were calculated by 4 parameter sigmoidal curve fitting formula.
DGAT2 activity was determined by measuring the amount of enzymatic product ^13C18-triolein (^13C-1,2,3-Tri(cis-9-octadecenoyl)glycerol) using the membrane prep mentioned above. The assay was carried out in ABgene 384-well assay plates in a final volume of 25 μL at rt. The assay mixture contained the following: assay buffer (100 mM Tris.Cl, pH 7.0, 20 mM MgCl2, 5% ethanol), 25 μM of diolein, 5 μM of ^13C oleoyl-CoA and 8 ng/μL of DGAT2 membrane.

Row | Structure (SMILES) | IC50 [nM]
1 | CC1(NC(=O)c2cc(Cl)c3c(c2)c(C(C)(C)O)nn3-c2cccc(OC(F)F)c2)CS(=O)(=O)C1 [Example 35, 7-chloro-1-(3-(difluoromethoxy)phenyl)-3-(2-hydroxypropan-2-yl)-N-(3-methy1-l,1-dioxidothietan-3-yl)-1H-indazole-5-carboxamide] | 9.1
2 | CC(C)(O)Cc1nn(-c2cccc(OC(F)F)c2)c2ncc(C(=O)NC3(C)CS(=O)(=O)C3)cc12 [Example 23] | 5.8
3 | CC1(NC(=O)c2ccc3c(c2)c(C(O)C(F)(F)F)nn3-c2cccc(OC(F)F)c2)CS(=O)(=O)C1 (racemic) [Example 30, 1-(3-(difluoromethoxy)phenyl)-N-(3-methyl-1,1-dioxidothietan-3-yl)-3-(2,2,2-trifluoro-1-hydroxyethyl)-1H-indazole-5-carboxamide] | 47
4 | CC1(NC(=O)c2ccc3c(c2)c(C(O)C(F)F)nn3-c2cccc(OC(F)F)c2)CS(=O)(=O)C1 (racemic) [Example 31] | 94
5 | CC1(NC(=O)c2ccc3c(c2)c(C(O)C(F)(F)F)nn3-c2cccc(OC(F)F)c2)CS(=O)(=O)C1 (single isomer, unassigned) [Example 30a, 1-[3-(difluoromethoxy)phenyl]-N-(3-methyl-1,1-dioxo-thietan-3-yl)-3-(2,2,2-trifluoro-1-hydroxy-ethyl)indazole-5-carboxamide] | 84
6 | CC(C)c1nn(-c2cc(OCC(F)F)ncc2F)c2ncc(C(=O)NC3(C)CS(=O)(=O)C3)cc12 [Example 26, 1-(2-(2,2-difluoroethoxy)-5-fluoropyridin-4-yl)-3-isopropyl-N-(3-methyl-1,1-dioxidothietan-3-yl)-1H-pyrazolo[3,4-b]pyridine-5-carboxamide] | 2.2
7 | CC1(NC(=O)c2ccc3c(c2)c(C(O)C2CC2)nn3-c2cccc(OC(F)F)c2)CS(=O)(=O)C1 (single isomer, unassigned) [Example 29b, 3-[cyclopropyl(hydroxy)methyl] - 1-[3-(difluoromethoxy)phenyl]-N-(3-methyl-1,1-dioxo-thietan-3-yl)indazole-5-carboxamide] | 205
8 | Cn1nccc1-n1nc(-c2ccc(F)cc2)c2cc(C(=O)NC3(C)CS(=O)(=O)C3)ccc21 [Example 3, 3-(4-fluorophenyl)-N-(3-methyl-1,1-dioxo-thietan-3-yl)-1-(2-methylpyrazol-3-yl)indazole-5-carboxamide] | 389
9 | C[C@]1(NC(=O)c2ccc3c(c2)c(-c2ccc(F)cc2)cn3-c2ccccc2Cl)CCS(=O)(=O)C1 [Example 5, (S)-1-(2-chlorophenyl)-3-(4-fluorophenyl)-N-(3-methyl-1,1-dioxidotetrahydrothiophen-3-yl)-1H-indole-5-carboxamide] | 115
10 | CC1(NC(=O)c2ccc3c(c2)c(C(F)F)nn3-c2cccc(OC(F)F)c2)CS(=O)(=O)C1 [Example 32, 1-(3-(difluoromethoxy)phenyl)-3-(difluoromethyl)-N-(3-methyl-1,1-dioxidothietan-3-yl)-1H-indazole-5-carboxamide] | 24
11 | Cc1c(C(=O)NC2(C)CS(=O)(=O)C2)ccc2c1c(C(C)C)nn2-c1cccc(OC(F)F)c1 [Example 20] | 5
12 | C[C@]1(NC(=O)c2cnc3c(c2)c(-c2ccc(F)cc2)nn3-c2cccc(OC(F)F)c2)CCS(=O)(=O)C1 [Example 4, (S)-1-(3-(difluoromethoxy)phenyl)-3-(4-fluorophenyl)-N-(3-methyl-l,1-dioxo-thiolan-3-yl)pyrazolo[3,4-b]pyridine-5-carboxamide] | 3.2
13 | CC(C)c1nn(-c2cccc(OC(F)F)c2)c2cnc(C(=O)NC3(C)CS(=O)(=O)C3)cc12 [Example 13] | 77
14 | Cc1ncc(OC(F)F)cc1-n1nc(CC(C)(C)O)c2cc(C(=O)NC3(C)CS(=O)(=O)C3)cnc21 [Example 25, l-(5-(difluoromethoxy)-2-methylpyridin-3-yl)-3-(2-hydroxy-2-methylpropyl)-N-(3-methyl-1,1-dioxidothietan-3-yl)-1H-pyrazolo[3,4-b]pyridine-5-carboxamide] | 705
15 | CC(C)(CN1CCOCC1)NC(=O)c1ccc2c(c1)c(-c1ccccc1Cl)cn2-c1ccc(F)cc1 [Example 9, 3-(2-chlorophenyl)-1-(4-fluorophenyl)-N-(2-methyl-l-morpholinopropan-2-yl)-1H-indole-5-carboxamide] | 12300
16 | Cc1cc2c(cc1C(=O)NC1(C)CS(=O)(=O)C1)c(C(C)C)nn2-c1cccc(OC(F)F)c1 [Example 19] | 134

The next lines start with the values.

Row | IC50 [nM] | Structure (SMILES)
17 | > 10000 | CC1(NC(=O)c2ccc3c(c2)c(O)nn3-c2cccc(OC(F)F)c2)CS(=O)(=O)C1 [Example 56]
18 | 41 | CC(C)Nc1nn(-c2cccc(OC(F)F)c2)c2ccc(C(=O)NC3(C)CS(=O)(=O)C3)cc12 [Example 50]
19 | 13 | CC1(NC(=O)c2cnc3c(c2)c(C(C)(C)O)nn3-c2cc(OCC(F)F)ncc2F)CS(=O)(=O)C1 [Example 45, 1-(2-(2,2-difluoroethoxy)-5-fluoropyridin-4-yl)-3-(2-hydroxypropan-2-yl)-N-(3-methyl-1,1-dioxidothietan-3-yl)-1H-pyrazolo[3,4-b]pyridine-5-carboxamide]
20 | 93 | CC(C)Oc1nn(-c2cc(OC(F)F)ccc2F)c2ncc(C(=O)NC3(C)CS(=O)(=O)C3)cc12 [Example 55, 1-(5-(difluoromethoxy)-2-fluorophenyl)-3-isopropoxy-N-(3-methyl-1,1-dioxidothietan-3-yl)-1H-pyrazolo[3,4-b]pyridine-5-carboxamide]
21 | 54 | CC(O)c1nn(-c2cccc(OC(F)F)c2)c2ncc(C(=O)NC3(C)CS(=O)(=O)C3)cc12 (single isomer, unassigned) [Example 38b, l-(3-(difluoromethoxy)phenyl)-3-(l-hydroxyethyl)-N-(3-methyl-1,1-dioxidothietan-3-yl)-1H-pyrazolo[3,4-b]pyridine-5-carboxamide]
22 | 59 | Cc1cc(C(=O)NC2(C)CS(=O)(=O)C2)cc2c(C(C)(C)O)nn(-c3cccc(OC(F)F)c3)c12 [Example 36, 1-(3-(difluoromethoxy)phenyl)-3-(2-hydroxypropan-2-yl)-7-methyl-N-(3-methyl-1,1-dioxidothietan-3-yl)-1H-indazole-5-carboxamide]
23 | 118 | CC1(NC(=O)c2cnc3c(c2)c(C(C)(O)C(F)F)nn3-c2cccc(OC(F)F)c2)CS(=O)(=O)C1 (stereo not shown) [Example 43, 3-(1,1-difluoro-2-hydroxypropan-2-yl)-1-(3 - (difluoromethoxy)phenyl)-N-(3-methyl-1,1-dioxidothietan-3-yl)-1H-pyrazolo[3,4-b]pyridine-5-carboxamide]
24 | 375 | C[C@]1(NC(=O)c2ccc3c(c2)c(N2CCOCC2)nn3-c2cccc(OC(F)F)c2)CCS(=O)(=O)C1 [Example 48, (S)-1-[3-(difluoromethoxy)phenyl]-N-(3-methyl-1,1-dioxo-thiolan-3-yl)-3-morpholino-indazole-5-carboxamide]
25 | 15 | CC1(NC(=O)c2cc(F)c3c(c2)c(C(C)(C)O)nn3-c2cccc(OC(F)F)c2)CS(=O)(=O)C1 [Example 37, l-(3-(difluoromethoxy)phenyl)-7-fluoro-3-(2-hydroxypropan-2-yl)-N-(3-methyl-1,1-dioxidothietan-3-yl)-1H-indazole-5-carboxamide]
